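Values below derive from 48-hour exposures of cells grown in 96-well plates, with endpoints linearly interpolated between the two concentrations bracketing the appropriate inhibition level. GI50 = concentration required for 50% inhibition of growth.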 Calls of active or inactive are those of the source. No stated cut-off is given here; in the data, active = GI50 up to about 1.1 µM and inactive = higher.
Experiments:
Test in all cases: NCI-60 cell line screen, 48 h
UO-31 = system: UO-31
MDA-MB-231 = system: MDA-MB-231
MOLT-4 = system: MOLT-4
HOP-62 = system: HOP-62
HCC 2998 = system: HCC 2998
HCT-15 = system: HCT-15
SNB-19 = system: SNB-19
Malme-3M = system: Malme-3M
MCF7 = system: MCF7
T47D = system: T47D
SW-620 = system: SW-620
SK-MEL-2 = system: SK-MEL-2
OVCAR-3 = system: OVCAR-3
IGROV-1 = system: IGROV-1
HT-29 = system: HT-29
SK-MEL-28 = system: SK-MEL-28
786-0 = system: 786-0
SK-OV-3 = system: SK-OV-3
SF-268 = system: SF-268

Measured: GI50

COC1=CC2=NCCc3n[nH]c(c32)C1=O
inactive: UO-31 24.7 µM | MDA-MB-231 14.5 µM | MOLT-4 18.6 µM | HOP-62 31.7 µM | HCC 2998 47.1 µM | SNB-19 46 µM | Malme-3M 16.3 µM | MCF7 4.86 µM | T47D 2.9 µM | SW-620 13.6 µM | SK-MEL-2 15.3 µM | OVCAR-3 15.9 µM | IGROV-1 19.1 µM | HT-29 13 µM | SK-MEL-28 18.1 µM | 786-0 18.5 µM
46.3 µM: HCT-15

CN(CCO)CC(=O)CC(O)(C(F)(F)F)C(F)(F)F
inactive: UO-31 39.1 µM | MDA-MB-231 29.7 µM | MOLT-4 52.6 µM | HCC 2998 56.2 µM | SNB-19 41.4 µM | Malme-3M 34.7 µM | MCF7 46.2 µM | T47D 28.4 µM | SK-OV-3 26.4 µM | SW-620 34.9 µM | SK-MEL-2 33 µM | OVCAR-3 26.5 µM | IGROV-1 43.2 µM | HT-29 30.7 µM | SK-MEL-28 42.6 µM | 786-0 32.6 µM
33.3 µM: HCT-15

Cn1cnc(C(N)=[Se])c1N
3.63 µM: HCT-15
inactive: UO-31 2.07 µM | MDA-MB-231 2.07 µM | SF-268 1.95 µM | HOP-62 2.46 µM | HCC 2998 15.4 µM | SNB-19 1.29 µM | Malme-3M 2.69 µM | MCF7 3.15 µM | T47D 3.65 µM | SK-OV-3 1.25 µM | SW-620 4.19 µM | SK-MEL-2 2.27 µM | OVCAR-3 2.03 µM | IGROV-1 1.33 µM | HT-29 5.35 µM | SK-MEL-28 3.39 µM | 786-0 2.13 µM

CCN(CC)CCN1CCN=C2c3cc(OC)ccc3Nc3c([N+](=O)[O-])ccc1c32
inactive: Malme-3M 1.54 µM | T47D 5.65 µM | SK-OV-3 2.52 µM | IGROV-1 1.72 µM
active: MDA-MB-231 0.671 µM | SF-268 0.501 µM | MOLT-4 0.288 µM | HOP-62 0.56 µM | HCC 2998 0.555 µM | MCF7 0.551 µM | SW-620 0.449 µM | HT-29 0.881 µM | SK-MEL-28 1 µM | 786-0 0.369 µM
0.845 µM: HCT-15

CCOC1CCN(C(=O)c2ccccc2)O1 (configuration not stated)
inactive: UO-31 > 10 µM | MDA-MB-231 > 10 µM | SF-268 > 10 µM | MOLT-4 > 10 µM | HOP-62 > 10 µM | HCC 2998 > 10 µM | SNB-19 > 10 µM | Malme-3M > 10 µM | MCF7 > 10 µM | T47D > 10 µM | SK-OV-3 > 10 µM | SW-620 > 10 µM | SK-MEL-2 > 10 µM | OVCAR-3 > 10 µM | IGROV-1 > 10 µM | HT-29 > 10 µM | SK-MEL-28 > 10 µM | 786-0 > 10 µM
> 10 µM: HCT-15

Cn1nc2ccc(Nc3cc(=O)[nH]c4ccc5nn(C)nc5c34)cc2n1
> 100 µM: HCT-15
inactive: UO-31 > 100 µM | MDA-MB-231 > 100 µM | SF-268 > 100 µM | MOLT-4 82.2 µM | HOP-62 > 100 µM | HCC 2998 > 100 µM | SNB-19 > 100 µM | Malme-3M > 100 µM | MCF7 > 100 µM | T47D > 100 µM | SK-OV-3 > 100 µM | SW-620 > 100 µM | SK-MEL-2 > 100 µM | OVCAR-3 > 100 µM | IGROV-1 50.5 µM | HT-29 > 100 µM | SK-MEL-28 > 100 µM | 786-0 > 100 µM

NC1=C(Cl)C(=O)c2c(O)ccc(O)c2C1=O
inactive: UO-31 9.06 µM | MDA-MB-231 5.73 µM | SF-268 3.83 µM | MOLT-4 6.98 µM | HOP-62 5.36 µM | HCC 2998 2.84 µM | SNB-19 3.89 µM | MCF7 1.55 µM | T47D 7.24 µM | SK-OV-3 20.9 µM | SW-620 3.15 µM | SK-MEL-2 4.72 µM | OVCAR-3 2.22 µM | IGROV-1 5.83 µM | HT-29 2.54 µM | SK-MEL-28 2.39 µM | 786-0 8.93 µM
3.37 µM: HCT-15
active: Malme-3M 0.279 µM

NC(=O)c1cc2ccccc2o/c1=N/c1ccccc1
inactive: MDA-MB-231 > 100 µM | SF-268 > 100 µM | MOLT-4 > 100 µM | HOP-62 > 100 µM | HCC 2998 > 100 µM | SNB-19 > 100 µM | Malme-3M > 100 µM | MCF7 > 100 µM | T47D > 100 µM | SK-OV-3 > 100 µM | SW-620 > 100 µM | SK-MEL-2 > 100 µM | OVCAR-3 > 100 µM | IGROV-1 > 100 µM | HT-29 > 100 µM | SK-MEL-28 > 100 µM | 786-0 > 100 µM
> 100 µM: HCT-15

— ChEMBL document CHEMBL1201862, “PubChem BioAssay data set” (2004)
